Patent US20130178413A1, “HCV NS3 PROTEASE INHIBITORS” (priority 2010, published 2013)
Where two headings read alike, the source gives them in different places.

Experiments:
NS3/4A protease gt 1b = NS3/4A protease gt 1b (Hepatitis C virus genotype 1b, UniProt P26663); test: HCV NS3 protease time-resolved fluorescence (TRF) assay, NS3/4A inhibitory activity (Ki), gt 1b; assay type: biochemical; conditions: genotype 1b NS3/4A; read-out: Enzyme Activity gt 1b Ki
Method: (§1) The HCV NS3 protease inhibitory activity of the present compounds may be tested using assays known in the art. One such assay is HCV NS3 protease time-resolved fluorescence (TRF) assay as described below and in International Patent Application Publication WO2006/102087. Other examples of such assays are described in e.g., International Patent Application Publication WO2005/046712. HCV NS3 protease inhibitors, such as those described herein have a Ki less than 50 μM, such as less than 10 μM, and less than 100 nM. Ki is determined by an NS3 protease assay. The assay is performed in a final volume of 100 μl in assay buffer containing 50 mM HEPES, pH 7.5, 150 mM NaCl, 15% glycerol, 0.15% TRITON X-100, 10 mM DTT, and 0.1% PEG 8000. NS3 protease is pre-incubated with various concentrations of inhibitors in DMSO for 30 minutes. The reaction is initiated by adding the TRF peptide substrate (final concentration 100 nM). NS3 mediated hydrolysis of the substrate is quenched after 1 hour at room temperature with 100 μl of 500 mM MES, pH 5.5. Product fluorescence is detected using either a VICTOR V2 or FUSION fluorophotometer (Perkin Elmer Life and Analytical Sciences) with excitation at 340 nm and emission at 615 nm with a 400 μs delay. Testing concentrations of different enzyme forms are selected to result in a signal to background ratio (S/B) of 10-30. IC50 values are derived using a standard four-parameter fit to the data. Ki values are derived from IC50 values using the following formula,
(§2) IC50=Ki(1+[S]/KM), Eqn (1),
(§3) where [S] is the concentration of substrate peptide in the reaction and KM is the Michaelis constant. See P. Gallinari et al., 38 BIOCHEM. 5620-32 (1999); P. Gallinari et al., 72 J. VIROL. 6758-69 (1998); M. Taliani et al., 240 ANAL. BIOCHEM. 60-67 (1996).
(§4) One such assay is HCV NS3 protease time-resolved fluorescence (TRF) assay as described below and in Mao et al., Anal Biochem. 373:1-8, 2008 and International Patent Application Publication WO 2006/102087. A NS3 protease assay can be performed, for example, in a final volume of 100 μl assay buffer containing 50 mM HEPES, pH 7.5, 150 mM NaCl, 15% glycerol, 0.15% TRITON X-100, 10 mM DTT, and 0.1% PEG 8000. NS3 and NS4A protease is pre-incubated with various concentrations of inhibitors in DMSO for 30 minutes. The reaction is initiated by adding the TRF peptide substrate (final concentration 100 nM). NS3 mediated hydrolysis of the substrate is quenched after 1 hour at room temperature with 100 μl of 500 mM MES, pH 5.5. Product fluorescence is detected using either a VICTOR V2 or FUSION fluorophotometer (Perkin Elmer Life and Analytical Sciences) with excitation at 340 nm and emission at 615 nm with a 400 μs delay. Testing concentrations of different enzyme forms are selected to result in a signal to background ratio (S/B) of 10-30. IC50 values are derived using a standard four-parameter fit to the data. Ki values are derived from IC50 values using the following formula,
as §3, with “(1996); Mao et al., Analytical Biochemistry 373: 1-8, 2008. Measuring Compound Inhibitory Potency (Replicon EC50 (nM))” for “(1996).”

[1] = target: NS3/4A protease gt 1b A156V (Hepatitis C virus genotype 1b, UniProt P26663, A1182V); test: HCV NS3 protease time-resolved fluorescence (TRF) assay, NS3/4A inhibitory activity (Ki), gt 1b A156V mutant; assay type: biochemical, hepatitis C virus (HCV)
Method: as §1, §2, §3, §4
as §3, with “(1996); Mao et al., Analytical Biochemistry 373: 1-8, 2008. Measuring Compound Inhibitory Potency (Replicon EC50 (nM))” for “(1996).”

NS3/4A protease gt 3a = NS3/4A protease gt 3a (Hepatitis C virus genotype 3a, UniProt Q81258); test: HCV NS3 protease time-resolved fluorescence (TRF) assay, NS3/4A inhibitory activity (Ki), gt 3a; assay type: biochemical; conditions: genotype 3a NS3/4A; read-out: Enzyme Activity gt 3a Ki
Method: as §1, §2, §3, §4
as §3, with “(1996); Mao et al., Analytical Biochemistry 373: 1-8, 2008. Measuring Compound Inhibitory Potency (Replicon EC50 (nM))” for “(1996).”

gt 1b Replicon = test: HCV replicon assay, compound inhibitory potency (Replicon EC50); assay type: cell-based; conditions: Hepatitis C virus, GT1B
Method: Measurement of inhibition by compounds was performed using the HCV replicon system. Several different replicons encoding different HCV genotypes or mutations were used. In addition, potency measurements were made using different formats of the replicon assay, including different ways of measurements and different plating formats. See Jan M. Vrolijk et al., A replicons-based bioassay for the measurement of interferons in patients with chronic hepatitis C, 110 J. VIROLOGICAL METHODS 201 (2003); Steven S. Carroll et al., Inhibition of Hepatitis C Virus RNA Replication by 2′-Modified Nucleoside Analogs, 278(14) J. BIOLOGICAL CHEMISTRY 11979 (2003). However, the underlying principles are common to all of these determinations, and are outlined below.
Stable neomycin phosphotransferase encoding replicon-harboring cell lines were used, so all cell lines were maintained under G418 selection prior to the assay. In some cases the cell lines encoded a luciferase:Neor fusion and could be assayed either directly by determination of RNA copy number, or indirectly through measurement of the luciferase activity.
To initiate an assay, replicon cells were plated in the presence of a dilution series of test compound in the absence of G418. Typically, the assays were performed in a 96-well plate format for manual operation, or a 384 well plate in an automated assay. Replicon cells and compound were incubated for 24-48 hours, depending on the assay. At the end of the assay, cells are washed free of media and compound and then lysed. For direct quantitation, RNA levels were measured by ^32P-probe hybridization and protection, or in a TAQMAN based assay and normalized to cellular cyclophilin A RNA levels. In some cases, luciferase activity was measured using a conventional luciferase assay. In all cases EC50 determinations were calculated as a percent of a DMSO control by fitting the data to a four parameter fit function.

[2] = 10% Fetal Bovine Serum, read-out: gt 1b Replicon EC50 10% FBS
[3] = 50% Normal Human Serum, read-out: gt 1b Replicon EC50 50% NHS

Row | Structure (SMILES) | Ki (NS3/4A protease gt 1b) | Ki [1] | Ki (NS3/4A protease gt 3a) | EC50 (gt 1b Replicon; [2]) | EC50 (gt 1b Replicon; [3])
1 | C=C[C@@H]1C[C@]1(NC(=O)[C@@H]1C[C@@H]2CN1C(=O)[C@H](C1CCCC1)NC(=O)O[C@]1(C)C[C@H]1CCCCCc1nc3cccc(OC)c3nc1O2)C(=O)NS(=O)(=O)C1(C)CC1 [Example I-1, (1R,18R,20R,24S,27S)-24-Cyclopentyl-6-methoxy-20-methyl-N-[(1R,2S)-1-({[(1-methylcyclopropyl)sulfonyl]amino}carbonyl)-2-vinylcyclopropyl]-22,25-dioxo-2,21-dioxa-4,11,23,26-tetraazapentacyclo[24.2.1.0^3,12.0^5,10.0^18,20]nonacosa-3,5,7,9,11-pentaene-27-carboxamide] | 0.04 nM | 1 nM | 1.6 nM | 2 nM | 7.6 nM
2 | C=C[C@@H]1C[C@]1(NC(=O)[C@@H]1C[C@@H]2CN1C(=O)[C@H](C1CCCC1)NC(=O)O[C@]1(C)CCC[C@H]1CCCCCc1nc3ccc(OC)cc3cc1O2)C(=O)NS(=O)(=O)C1CC1 [Example I-3, (1R,18R,22R,26S,29S)-26-Cyclopentyl-N-((1R,2S)-1-{[(cyclopropylsulfonyl)amino]carbonyl}-2-vinylcyclopropyl)-7-methoxy-22-methyl-24,27-dioxo-2,23-dioxa-11,25,28-triazapentacyclo[26.2.1.0^3,12.0^5,10.0^18,22]hentriaconta-3(12),4,5,7,9,10-hexaene-29-carboxamide] | 0.03 nM | 3.3 nM | 0.5 nM | 6 nM | 23 nM
3 | C=C[C@@H]1C[C@]1(NC(=O)[C@@H]1C[C@@H]2CN1C(=O)[C@H](C1CCCC1)NC(=O)O[C@]1(C)C[C@H]1CC/C=C/Cc1c(nc3ccccc3c1O)O2)C(=O)NS(=O)(=O)C1CC1 [Example I-4, (1R,14E,18R,20R,24S,27S)-24-Cyclopentyl-N-((1R,2S)-1-{[(cyclopropylsulfonyl)amino]carbonyl}-2-vinylcyclopropyl)-11-hydroxy-20-methyl-22,25-dioxo-2,21-dioxa-4,23,26-triazapentacyclo[24.2.1.0^3,12.0^5,10.0^18,20]nonacosa-3,5,7,9,11,14-hexaene-27-carboxamide] | 0.04 nM | 0.9 nM | 0.7 nM | 7 nM | 17 nM
4 | C=C[C@@H]1C[C@]1(NC(=O)[C@@H]1C[C@@H]2CN1C(=O)[C@H](C(C)(C)C)NC(=O)O[C@]1(C)C[C@H]1CCC/C=C/c1cccc3c1CN(C3)C(=O)O2)C(=O)NS(=O)(=O)C1CC1 [Example I-5, (1aR,5S8S,10R,19E,23aR)-5-tert-butyl-N-{(1R,2S)-1-[(cyclopropylsulfonyl)carbamoyl]-2-ethenylcyclopropyl}-1a-methyl-3,6,12-trioxo-1a,3,4,5,6,9,10,14,21,22,23,23a-dodecahydro-1H,8H-7,10:13,15-dimethanocycloproa[n][4,13,2,8,11]benzodioxatriazacyclodocosine-8(12H)-carboxamide] | 0.02 nM | 1.3 nM | 1 nM | 3 nM | 22 nM
5 | C=C[C@@H]1C[C@]1(NC(=O)[C@@H]1C[C@@H]2CN1C(=O)[C@H](C(C)(C)C)NC(=O)O[C@]1(C)C[C@H]1CCCCCc1cccc3c1CN(C3)C(=O)O2)C(=O)NS(=O)(=O)C1CC1 [Example I-6, (1aR,5S,8S,10R,23aR)-5-tert-butyl-N-{(1R,2S)-1-[(cyclopropylsulfonyl)carbamoyl]-2-ethenylcyclopropyl}-1a-methyl-3,6,12-trioxo-1a,3,4,5,6,9,10, 14,19,20,21,22,23,23a-tetradecahydro-1H,8H-7,10:13,15-dimethano cyclopropa [n][4,13,2,8,11] benzodioxatriaza cyclodocosine-8(12H)-carboxamide] | 0.02 nM | 0.3 nM | 2.9 nM | 3 nM | 54 nM
6 | CC[C@@H]1C[C@]1(NC(=O)[C@@H]1C[C@@H]2CN1C(=O)[C@H](C(C)(C)C)NC(=O)O[C@]1(C)C[C@H]1CCCCCc1cccc3c1CN(C3)C(=O)O2)C(=O)NS(=O)(=O)C1CC1 [Example I-7, (1aR,5S,8S,10R,23aR)-5-tert-butyl-N-{(1R,2R)-1-[(cyclopropylsulfonyl)carbamoyl]-2-ethylcyclopropyl}-1a-methyl-3,6,12-trioxo-1a,3,4,5,6,9,10,14,19, 20,21,22,23,23a-tetradecahydro-1H,8H-7,10:13,15-dimethano cyclopropa[n][4,13,2,8, 11]benzodioxatriaza cyclodocosine-8(12H)-carboxamide] | 0.02 nM | 2.2 nM | 8.7 nM | 4 nM | 27 nM
7 | C=C[C@@H]1C[C@]1(NC(=O)[C@@H]1C[C@@H]2CN1C(=O)[C@H](C1CCCC1)NC(=O)O[C@@]1(C)C[C@@H]1CC/C=C/Cn1c(nc3cc(Cl)ccc3c1=O)O2)C(=O)NS(=O)(=O)C1CC1 [Example I-25, (1aS,5S,8S,10R,20E,23aS)-14-chloro-5-cyclopentyl-N-{(1R,2S)-1-[(cyclopropylsulfonyl)carbamoyl]-2-ethenylcyclopropyl}-1a-methyl-3,6,17-trioxo-1,1a,3,4,5,6,9, 10,19,22,23,23a-dodecahydro-8H,17H-7,10-methanocyclo propa[18,19][1,10,3,6, 12]dioxatriazacyclo nonadecino[11,12-b]quinazoline-8-carboxamide] | 0.2 nM | 142 nM | 41 nM | – | –
